Assay results: PubChem BioAssay (NCI)
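In this assay, cells in 96-well plates receive the compound at five concentrations for 48 hours. Endpoints are linearly interpolated between the surrounding concentrations. TGI is the concentration that stops growth completely.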

Assays:
Test in all cases: inhibition of tumour cell growth, NCI panel, 48 h
786-0 renal = system: 786-0 renal
A498 renal = system: A498 renal
A549 NSCLC = system: A549 NSCLC
ACHN renal = system: ACHN renal
BT-549 breast = system: BT-549 breast
CAKI-1 renal = system: CAKI-1 renal
CCRF-CEM leukemia = system: CCRF-CEM leukemia
COLO 205 colon = system: COLO 205 colon
DU-145 prostate = system: DU-145 prostate
EKVX NSCLC = system: EKVX NSCLC
HCC-2998 colon = system: HCC-2998 colon
HCT-116 colon = system: HCT-116 colon
HCT-15 colon = system: HCT-15 colon
HL-60(TB) leukemia = system: HL-60(TB) leukemia
HOP-62 NSCLC = system: HOP-62 NSCLC
HOP-92 NSCLC = system: HOP-92 NSCLC
HS 578T breast = system: HS 578T breast
HT29 colon = system: HT29 colon
IGROV1 ovarian = system: IGROV1 ovarian
K-562 leukemia = system: K-562 leukemia
KM12 colon = system: KM12 colon
LOX IMVI melanoma = system: LOX IMVI melanoma
MALME-3M melanoma = system: MALME-3M melanoma
MCF7 breast = system: MCF7 breast
MDA-MB-231 breast = system: MDA-MB-231 breast
MDA-MB-435 = system: MDA-MB-435
MDA-N = system: MDA-N
MOLT-4 leukemia = system: MOLT-4 leukemia
NCI-H226 lung = system: NCI-H226 lung
NCI-H23 lung = system: NCI-H23 lung
NCI-H460 lung = system: NCI-H460 lung
NCI-H522 lung = system: NCI-H522 lung
NCI/ADR-RES ovarian = system: NCI/ADR-RES ovarian
OVCAR-3 ovarian = system: OVCAR-3 ovarian
OVCAR-4 ovarian = system: OVCAR-4 ovarian
OVCAR-5 ovarian = system: OVCAR-5 ovarian
OVCAR-8 ovarian = system: OVCAR-8 ovarian
PC-3 prostate = system: PC-3 prostate
RPMI-8226 leukemia = system: RPMI-8226 leukemia
RXF 393 renal = system: RXF 393 renal
SF-268 CNS = system: SF-268 CNS
SF-295 CNS = system: SF-295 CNS
SF-539 CNS = system: SF-539 CNS
SK-MEL-2 melanoma = system: SK-MEL-2 melanoma
SK-MEL-28 melanoma = system: SK-MEL-28 melanoma
SK-MEL-5 melanoma = system: SK-MEL-5 melanoma
SK-OV-3 ovarian = system: SK-OV-3 ovarian
SN12C renal = system: SN12C renal
SNB-75 CNS = system: SNB-75 CNS
SR leukemia = system: SR leukemia
SW-620 colon = system: SW-620 colon
T-47D breast = system: T-47D breast
TK-10 renal = system: TK-10 renal
U251 CNS = system: U251 CNS
UACC-257 melanoma = system: UACC-257 melanoma
UACC-62 melanoma = system: UACC-62 melanoma
UO-31 renal = system: UO-31 renal

SMILES: C(=N\NC1=NCCN1)/c1ccc2ccccc2c1
- TGI (786-0 renal): 26.3 µM
- TGI (A498 renal): 28.9 µM
- TGI (A549 NSCLC): 29.5 µM
- TGI (ACHN renal): 33.7 µM
- TGI (BT-549 breast): 25.3 µM
- TGI (CAKI-1 renal): 28 µM
- TGI (CCRF-CEM leukemia): 41.8 µM
- TGI (COLO 205 colon): 20.4 µM
- TGI (DU-145 prostate): > 100 µM
- TGI (EKVX NSCLC): 50.8 µM
- TGI (HCC-2998 colon): 31.2 µM
- TGI (HCT-116 colon): 28.9 µM
- TGI (HCT-15 colon): 43.6 µM
- TGI (HL-60(TB) leukemia): 34.5 µM
- TGI (HOP-62 NSCLC): 31 µM
- TGI (HOP-92 NSCLC): 13.3 µM
- TGI (HS 578T breast): 43.3 µM
- TGI (HT29 colon): 30.4 µM
- TGI (IGROV1 ovarian): 24.6 µM
- TGI (K-562 leukemia): 32.6 µM
- TGI (KM12 colon): 28 µM
- TGI (LOX IMVI melanoma): 26.7 µM
- TGI (MALME-3M melanoma): 28.3 µM
- TGI (MCF7 breast): 32.3 µM
- TGI (MDA-MB-231 breast): 35.3 µM
- TGI (MDA-MB-435): 31.3 µM
- TGI (MDA-N): 27.9 µM
- TGI (MOLT-4 leukemia): 42.8 µM
- TGI (NCI-H226 lung): 51.2 µM
- TGI (NCI-H23 lung): 51.1 µM
- TGI (NCI-H460 lung): 29.5 µM
- TGI (NCI-H522 lung): 29.6 µM
- TGI (NCI/ADR-RES ovarian): 39.4 µM
- TGI (OVCAR-3 ovarian): 32.9 µM
- TGI (OVCAR-4 ovarian): 54.3 µM
- TGI (OVCAR-5 ovarian): 44 µM
- TGI (OVCAR-8 ovarian): 35 µM
- TGI (PC-3 prostate): 28.5 µM
- TGI (RPMI-8226 leukemia): 49.4 µM
- TGI (RXF 393 renal): 34.6 µM
- TGI (SF-268 CNS): 47.6 µM
- TGI (SF-295 CNS): 29.9 µM
- TGI (SF-539 CNS): 39.4 µM
- TGI (SK-MEL-2 melanoma): 38 µM
- TGI (SK-MEL-28 melanoma): 28.7 µM
- TGI (SK-MEL-5 melanoma): 25.9 µM
- TGI (SK-OV-3 ovarian): 34.1 µM
- TGI (SN12C renal): 35.4 µM
- TGI (SNB-75 CNS): > 100 µM
- TGI (SR leukemia): > 100 µM
- TGI (SW-620 colon): 32.6 µM
- TGI (T-47D breast): > 100 µM
- TGI (TK-10 renal): 26.4 µM
- TGI (U251 CNS): 29.8 µM
- TGI (UACC-257 melanoma): 29.3 µM
- TGI (UACC-62 melanoma): 29 µM
- TGI (UO-31 renal): 19.9 µM
